For seven compounds, GI50 and TGI results are on record in PubChem BioAssay (NCI).

SMILES strings stand for the structures.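 Step 1: Grow cells in 96-well plates. Step 2: Expose to compound for 48 hours at 5 concentrations. Step 3: Interpolate endpoints linearly; if unreached, use highest concentration. GI50 = concentration required for 50% inhibition of growth. TGI: total growth inhibition.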 Some results are limits rather than exact numbers.

Test in all cases: growth of human tumour cells (NCI), 48 h
Assay [1] deals with 786-0 renal.
Assay [2] has as its system BT-549 breast.
Assay [3] concerns EKVX NSCLC.
Assay [4] concerns HOP-92 NSCLC.
Assay [5] relates to MALME-3M melanoma.
For assay [6], the system named is MCF7 breast.
In assay [7] the test system is OVCAR-4 ovarian.
For assay [8], the system named is PC-3 prostate.
In assay [9] the test system is SF-295 CNS.
In assay [10] the test system is SNB-75 CNS.

Consider `O=c1/c(=C\c2ccc(F)cc2)sc2n1C(c1ccc(F)cc1)C1=C(N=2)c2ccc3ccccc3c2OCC1` (centres undefined), for which the GI50 in assay [1] is greater than 100 µM; in assay [2] it was greater than 64.5 µM; in [3] it was greater than 100 µM; in assay [5], greater than 100 µM; in [6] it was greater than 100 µM; in [7] it was greater than 100 µM. The GI50 in assay [8] was greater than 52.8 µM; in assay [9], greater than 100 µM; in assay [10], greater than 100 µM. Moreover, the TGI in [1], in assay [2], in assay [3], in assay [4], in assay [5] and in assay [6] was greater than 100 µM each time. In addition, the TGI in [7], in assay [8], in assay [9] and in [10] was greater than 100 µM in each case.

On to `CCOc1c(N=Nc2ccccc2Cl)c(-c2ccccc2)nn1C(=S)S`, for which the TGI in assay [1] was greater than 100 µM; in [2] it was greater than 100 µM; in assay [3] it was greater than 100 µM; in assay [4], greater than 100 µM; in assay [5] it was 95.2 µM; in assay [6], greater than 100 µM. Moreover, the TGI in assay [7], in [8], in assay [9] and in assay [10] was greater than 100 µM each time.

For `COc1cc2c(cc1OCCCCCCN1CCN(CC(=O)Nc3ccc(Cl)cc3C(=O)c3ccccc3Cl)CC1)N=CC1CCCN1C2=O` (centres undefined), the GI50 is 0.339 µM in [1]; 0.252 µM in assay [2]; 0.477 µM in assay [3]; 0.177 µM in assay [4]; 0.185 µM in [5]; 0.153 µM in assay [6]. For the same compound, the GI50 is 0.419 µM in assay [7], 0.308 µM in assay [8], 0.18 µM in assay [9] and 0.169 µM in assay [10]. The TGI in assay [1] is 0.823 µM; in assay [2], 0.898 µM; in assay [3], 1.14 µM; in [4], 0.396 µM; in [5], 0.361 µM; in assay [6] it was 0.321 µM. The TGI in assay [7] amounted to 1.25 µM; in [8], 0.715 µM; in assay [9] it was 0.461 µM; in [10], 0.472 µM.

With `O=C(Nn1c(-c2ccccc2)nc2ccccc2c1=O)c1ccccc1O`, the TGI in assay [1], in assay [2], in [3], in assay [4], in assay [5] and in assay [6] was greater than 100 µM throughout. Besides, the TGI in [7], in [8], in assay [9] and in assay [10] was greater than 100 µM each time.

On to `C1CC[N-]CC1.CC(=N\O)/C(C)=N/O.CC(=N\O)/C(C)=N/O.OC1[CH-]CCCC1.[Co+2]`, for which the GI50 was 61.8 µM in assay [1]; 37.8 µM in [2]; 31.1 µM in [3]; 22.2 µM in assay [4]; 18 µM in [5]; 38.7 µM in assay [6]. Also, the GI50 in [7] is 72.7 µM; in [8], 36.6 µM; in [9] it was greater than 100 µM; in [10] it was 26.9 µM. Besides, the TGI was greater than 100 µM in [1]; greater than 100 µM in assay [2]; greater than 100 µM in assay [3]; 93.1 µM in assay [4]; 40.8 µM in assay [5]; greater than 100 µM in [6]. The TGI in assay [7], in assay [8], in [9] and in [10] was greater than 100 µM throughout.

On to `O=C(Oc1ccc(CO[N+](=O)[O-])cc1)c1ccccc1`, for which the GI50 in assay [1] is 0.0945 µM; in [2], 0.139 µM; in assay [3] it was 0.407 µM; in assay [4], 0.151 µM; in [5], 0.123 µM; in assay [6], 0.194 µM. Also, the GI50 in [7] was 0.18 µM; in assay [8], 0.13 µM; in assay [9], 0.194 µM; in [10], 0.158 µM. Also, the TGI in assay [1] is 0.235 µM; in assay [2], 0.27 µM; in [3], 1.59 µM; in assay [4] it was 0.313 µM; in assay [5], 0.272 µM; in assay [6], 0.722 µM. The TGI turned out to be 0.381 µM in assay [7], 0.301 µM in [8], 0.631 µM in assay [9] and 0.333 µM in assay [10].

Consider `COC(=O)COc1ccc(/C=C2/N=C(c3ccccc3)N(c3c(C)n(C)n(-c4ccccc4)c3=O)C2=O)cc1`, for which the GI50 in assay [1] is 19.7 µM; in assay [2] it was 17.1 µM; in assay [3], 37.8 µM; in assay [4], 25.1 µM; in assay [5], 19.7 µM; in assay [6] it was 14.1 µM. Besides, the GI50 in assay [7] is 26.5 µM; in assay [8] it was 19.6 µM; in assay [9], 33.5 µM; in [10], 16.7 µM. The TGI in assay [1] is 37 µM; in [2], 42 µM; in assay [3], greater than 100 µM; in assay [4], 55.1 µM; in assay [5], 40.6 µM; in assay [6] it was 32.9 µM. The TGI in [7] was 70.9 µM; in assay [8], 37.9 µM; in assay [9], greater than 100 µM; in assay [10] it was 30.7 µM.
